Measurements as given in US4540702A, “2-Substituted-4-thiazolidones” (Kureha Kagaku Kogyo Kabushiki Kaisha, priority 1979, dated 1985).

Key:
Type in all cases: in vivo
[1] = Effect on duodenal peptic ulcer induced by acetic acid (Okabe et al.); conditions: oral 100 mg/kg/day, three times a day for 10 days; for inhibition in vivo at 100 mg/kg/day: Rattus norvegicus, po, 240 h, vs control group, read-out: Rate of curation of peptic ulcer; for Coefficient of peptic ulcer: acetic acid duodenal ulcer rat
Description: The inventors of the present invention, taking into account of these situations, added to the method of evaluation the effect of accelerating the curation of the peptic ulcer by orally administering the present compound and a commercialized anti-peptic medicine, respectively to rats to which duodenal peptic ulcer due to acetic acid (refer to Okabe, 1971) considered to be most closely resembling to human peptic ulcer has been artificially formed.
Following the method of Okabe et al. (refer to Amer. J. Dig. Dis., Vol. 16, 277, 1971), each male rat weighing 240 to 260 g of a group consisting of 15 animals was subjected to laparotomy under ether-anesthesia and a metal circular frame was put on a part of the serosa at the distance of 5 to 7 mm from the duodenal pylorus and 0.06 ml of glacial acetic acid was poured on the circular part of the frame. After 30 seconds, the acetic liquid was removed and the frame was also removed. Each of the present compounds suspended in an aqueous 0.5% CMC solution was orally administered to the rat from after 3 days of the operation three times a day for consecutive 10 days, rats of control group being given the aqueous 0.5% CMC solution. After ending the administration, the rats were sacrificed by ether, their duodenum being removed to be examined under a microscope for autopsy. The longitudinal and horizontal lengths of the thus formed ulcer were determined and the product of the lengths expressed by mm^2 was recorded as the coefficient of peptic ulcer. The rate of curation of peptic ulcer, in this Example is calculated by the same manner as the rate of suppression of peptic ulcer in Example 5.

[2] = Suppressive action on gastric secretion (pyloric ligature); conditions: rat, intraduodenal 200 mg/kg, 4 hours; for Rate of suppression on gastric secretion: vs control
Experimental: Groups of male rats (a group consisted of 10 animals) were subjected to pyloric ligature under etherization after fasting for 24 hours, and each of the compounds to be tested was administered intraduodenally as an emulsion or suspension in an aqueous 0.5% by weight solution of sodium carboxymethylcellulose just after ligation. After 4 hours of the laparotomy, the stomach of each rat was extirpated under etherization, and the amount of gastric juice in the stomach was measured.

[3] = Effect against peptic ulcer formed by ligating the pylorus (Shay et al.); conditions: pylorus-ligated rat, 100 mg/kg intraperitoneal; for inhibition in vivo at 100 mg/kg: Rattus norvegicus, ip, 15 h, vs control group, read-out: Rate of suppression of peptic ulcer; for Coefficient of peptic ulcer: 15 hours
Experimental: Each male rat of a group consisting of 10 animals, weighing 180 to 200 g, after 48 hours' fasting, was subjected to ligature at its pyloric part under the anesthesia by ether following the method of Shay et al. (refer to Gastroenterology, Vol. 5, 43, 1945). Just after the ligature, each of the present compounds suspended in an aqueous physiological saline solution was injected into each rat's abdominal cavity at a dose rate of 100 mg/kg body weight, the control group being injected with an aqueous physiological saline solution. After keeping the rats at a state of fasting without taking water for 15 hours, the rats were sacrificed by ether and their stomachs were removed to examine under a microscope for autopsy. The longitudinal and horizontal lengths of the thus formed peptic ulcer were determined and expressed by the product (mm^2), and the total sum of the products was represented as the coefficient of ulcer.
The rate of suppression of peptic ulcer (%) is expressed by the ratio of the difference between the coefficient of peptic ulcer of control group and the coefficient of peptic ulcer of the treated group to the coefficient of peptic ulcer of control group multiplied by 100.

Row | Structure (SMILES) | inhibition in vivo at 100 mg/kg/day [1] | Coefficient of peptic ulcer [1] | Amount of gastric juice [2] | Rate of suppression on gastric secretion [2] | inhibition in vivo at 100 mg/kg [3] | Coefficient of peptic ulcer [3]
1 | COc1ccccc1C1NC(=O)CS1 (stereo not drawn) [2-(2-methoxyphenyl)-4-thiazolidone] | 80% | 1.5 mm^2 | 4.0 mL | 40.2% | 87.4% | 5.3 mm^2
2 | COc1cccc(C2NC(=O)CS2)c1OC (stereo not drawn) [2-(2,3-dimethoxyphenyl)-4-thiazolidone] | 82.7% | 1.3 mm^2 | 3.7 mL | 44.7% | 82.9% | 8.8 mm^2
3 | COc1cccc(C2NC(=O)CS2)c1 (stereo not drawn) [2-(3-methoxyphenyl)-4-thiazolidone] | 73.3% | 2.0 mm^2 |  |  | 86% | 5.5 mm^2
4 | O=C1CSC(c2ccccc2C(=O)O)N1 (stereo not drawn) [2-(2-carboxyphenyl)-4-thiazolidone] | 60% | 3.0 mm^2 |  |  | 79.8% | 8.5 mm^2
5 | CN(C)c1ccc(C2NC(=O)CS2)cc1 (stereo not drawn) [2-(4-dimethylaminophenyl)-4-thiazolidone] | 88% | 2.4 mm^2 |  |  | 75% | 10.5 mm^2
6 | CCOc1ccccc1C1NC(=O)CS1 (stereo not drawn) [2-(2-ethoxyphenyl)-4-thiazolidone] | 76% | 1.8 mm^2 | 4.3 mL | 35.8% | 81.9% | 7.6 mm^2
7 | COc1ccc(OC)c(C2NC(=O)CS2)c1 (stereo not drawn) [2-(2,5-dimethoxyphenyl)-4-thiazolidone] | 65.3% | 2.6 mm^2 | 3.5 mL | 32.8% | 79% | 9.4 mm^2
8 | COc1ccc(C2NC(=O)CS2)cc1 (stereo not drawn) [2-(4-methoxyphenyl)-4-thiazolidone] | 58.7% | 3.1 mm^2 |  |  | 68.1% | 13.4 mm^2
9 | COc1cc(C2NC(=O)CS2)cc(OC)c1O (stereo not drawn) [2-(3,5-dimethoxy-4-hydroxyphenyl)-4-thiazolidone] | 88% | 2.4 mm^2 |  |  | 81.9% | 7.6 mm^2
10 | CC(C)=CCCC(C)=CCCC(C)=CCCC(=O)OCC=C(C)CCC=C(C)C [Gefarnate, 3,7dimethyl-2,6-octadienyl 5,9,13trimethyl-4,8,12-tetradecatrienoate, reference compound] | 23% | 5.8 mm^2 | 6.5 mL | 2.9% | ~11% | 37.4 mm^2
11 | COc1cc(C2NC(=O)CS2)cc(OC)c1OC (stereo not drawn) [2-(3,4,5-trimethoxyphenyl)-4-thiazolidone] | 82.1% | 1.4 mm^2 |  |  | 85.8% | 6.5 mm^2
12 | COc1ccc(C2NC(=O)CS2)cc1OC (stereo not drawn) [2-(3,4-dimethoxyphenyl)-4-thiazolidone] | 80% | 1.5 mm^2 | 3.3 mL | 50.7% | 91.9% | 3.4 mm^2
